Measurements reported in ChEMBL document CHEMBL1134369, “Inhibition of heme detoxification processes underlies the antimalarial activity of terpene isonitrile compounds from marine sponges” (J Med Chem, 2001).

System: Plasmodium falciparum
Assay: Antiplasmodial activity against Plasmodium falciparum D6
Format: functional, organism-based

Question: How did the IC50 turn out when `[C-]#[N+][C@@]1(C)CC[C@H]2[C@H]3[C@H]4C(=CC[C@@H]31)CC(C)(C)C[C@@H]4C[C@@H]2C` was run?
Answer: The IC50 was 285 nM.

Question: Which IC50 does the source give for `[C-]#[N+][C@@]1(C)CC[C@H]2[C@H]3[C@@H](C(=C)CC[C@@H]31)[C@@H](C=C(C)C)C[C@@H]2C` here?
Answer: The IC50 was 47.4 nM.

Question: Which IC50 does the source give for `[C-]#[N+][C@@]1(C)CC[C@H]2[C@H]3[C@@H](C(C)=CC[C@@H]31)[C@H](C=C(C)C)C[C@@H]2C` here?
Answer: The IC50 was 1020 nM.

Question: With `CC(C)=CCC[C@@H](C)[C@H]1CC[C@](C)(N=C=S)[C@H]2CCC(C)=C[C@H]12` as the molecule, how does the IC50 read?
Answer: The IC50 was greater than 30200 nM.

Question: Which IC50 does the source give for `[C-]#[N+][C@@]1(C)CC[C@H]2[C@H]3[C@H]4C(=CC(C)(C)C[C@@H]4C[C@@H]2C)CC[C@@H]31` here?
Answer: Its IC50 is 249 nM.

Question: Which IC50 does the source give for `[C-]#[N+][C@@]1(C)CC[C@H]2[C@H]3[C@@H](C(=C)CC[C@@H]31)[C@H](CC(C)(C)N=C=S)C[C@@H]2C` here?
Answer: Its IC50 is 1320 nM.

Question: For `[C-]#[N+][C@]1(C)[C@H](C)C[C@@H]2C[C@H](C)[C@H]3CC[C@](C)(N=C=O)[C@H]4CC[C@H]1[C@@H]2[C@H]34`, which IC50 is on record?
Answer: The IC50 was 220 nM.

Question: `[C-]#[N+][C@@]1(C)CC[C@H]2[C@H]3[C@H]4[C@H](CC[C@@H]31)[C@H](C)C(C)=C[C@@H]4C[C@@H]2C` was tested. Which IC50 did it give?
Answer: The IC50 was 210 nM.

Question: `[C-]#[N+][C@@]1(C)CC[C@H]2[C@H]3[C@@H](C(=C)CC[C@@H]31)[C@H](CC(=C)C)C[C@@H]2C` was tested. Which IC50 did it give?
Answer: The IC50 was 1750 nM.

Question: With `[C-]#[N+][C@@]1(C)CC[C@H]2[C@H]3[C@@H]4[C@H](C[C@@H](C)[C@@](C)(N=C=O)[C@H]4CC[C@@H]31)C[C@@H]2C` as the molecule, how does the IC50 read?
Answer: Its IC50 is 9.4 nM.

Question: Which IC50 does the source give for `C=C[C@H]1C[C@H](C)[C@H]2CC[C@](C)(N=C=S)[C@H]3CCC(=C)[C@]1(O)[C@H]23` here?
Answer: The IC50 was 2310 nM.

Question: How did the IC50 turn out when `[C-]#[N+][C@@]1(C)CC[C@H]2[C@H]3C(=C(C)CC[C@@H]31)[C@@H](C=C(C)C)C[C@@H]2C` was run?
Answer: The IC50 was 197 nM.

Question: Which IC50 does the source give for `[C-]#[N+][C@]1(C)[C@H](C)C[C@@H]2C[C@H](C)[C@H]3CC[C@](C)([N+]#[C-])[C@H]4CC[C@H]1[C@@H]2[C@H]34` [DIISOCYANOADOCIANE] here?
Answer: Its IC50 is 14.5 nM.

Question: With `[C-]#[N+][C@]1(C)[C@H](C)C[C@@H]2C[C@H](C)[C@H]3CC[C@](C)(N=C=S)[C@H]4CC[C@H]1[C@@H]2[C@H]34` as the molecule, how does the IC50 read?
Answer: Its IC50 is 126 nM.

Question: For `[C-]#[N+][C@@]1(C)CC[C@H]2[C@@H]3[C@@H]1CC[C@@H](C)[C@]3(/C=C/C(=C)C)C[C@@H]2C`, which IC50 is on record?
Answer: The IC50 was 289 nM.
